Results taken from patent EP0973790B1, “ESTRA-5(10),7-DIENES WITH ESTROGENIC ACTIVITY” (Wyeth, priority 1997, dated 1998).
pKi: −log10 of the molar value.

What was measured:
[1] = tested on: Immature rats; assay: In vivo uterotropic activity; conditions: for Uterine Weight (mg) ± SD: n=6/group
[2] = target: human estrogen receptor (hER-α) (Homo sapiens, UniProt P03372); assay: Estrogen receptor binding, whole cell test procedure; conditions: comparison values for known estrogens
Sequence of human estrogen receptor (hER-α) (P03372 whole entry): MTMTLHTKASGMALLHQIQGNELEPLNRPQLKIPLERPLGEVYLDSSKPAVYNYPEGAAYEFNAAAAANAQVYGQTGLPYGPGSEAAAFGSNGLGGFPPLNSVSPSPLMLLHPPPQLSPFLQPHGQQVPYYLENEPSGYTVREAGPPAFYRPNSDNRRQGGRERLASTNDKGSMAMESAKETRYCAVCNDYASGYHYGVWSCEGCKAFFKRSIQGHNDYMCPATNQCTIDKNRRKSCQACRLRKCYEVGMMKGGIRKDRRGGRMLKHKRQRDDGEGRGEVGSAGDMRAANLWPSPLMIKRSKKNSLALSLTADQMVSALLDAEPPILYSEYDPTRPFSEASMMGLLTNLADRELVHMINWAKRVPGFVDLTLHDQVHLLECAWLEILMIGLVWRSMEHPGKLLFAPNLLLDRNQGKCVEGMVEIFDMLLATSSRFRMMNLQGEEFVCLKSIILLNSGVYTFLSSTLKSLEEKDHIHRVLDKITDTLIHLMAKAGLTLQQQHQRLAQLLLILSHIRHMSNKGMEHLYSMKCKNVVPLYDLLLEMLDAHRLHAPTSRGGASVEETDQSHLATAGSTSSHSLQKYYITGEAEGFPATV

CC12CCC3C(=CCC4=C3CCC(O)C4)C1CCC2=O (stereo not drawn) [5A, estra-5(10),7-dien-3α-ol-17-one]
Uterine Weight (mg) ± SD ([1]; 1 µg, three days S.C.): 28.7 ± 2.7 mg
Uterine Weight (mg) ± SD ([1]; 10 µg, three days S.C.): 33.3 ± 4.4 mg
Uterine Weight (mg) ± SD ([1]; 100 µg, three days S.C.): 66.5 ± 4.7 mg
Uterine Weight (mg) ± SD ([1]; 500 µg, three days S.C.): 78.9 ± 13.6 mg
estimated EC50 ([1]; uterine stimulation, in words relative to 5B): somewhat lower

CC12CCC3C(=CCC4=C3CCC(O)C4)C1CCC2=O (stereo not drawn) [5B, estra-5(10),7-dien-3β-ol-17-one]
Uterine Weight (mg) ± SD ([1]; 0.1 µg, three days S.C.): 34.1 ± 6.2 mg
Uterine Weight (mg) ± SD ([1]; 1 µg, three days S.C.): 31.7 ± 6.6 mg
Uterine Weight (mg) ± SD ([1]; 10 µg, three days S.C.): 43.5 ± 6.9 mg
Uterine Weight (mg) ± SD ([1]; 100 µg, three days S.C.): 79.7 ± 5.8 mg
Uterine Weight (mg) ± SD ([1]; 500 µg, three days S.C.): 82.6 ± 8.6 mg

C#C[C@]1(O)CC[C@H]2[C@@H]3CCc4cc(O)ccc4[C@H]3CC[C@@]21C [Ethinyl Estradiol, reference compound]
Uterine Weight (mg) ± SD ([1]; 0.5 µg, three days): 101.2 ± 2.8 mg

C[C@]12CCc3c(ccc4cc(O)ccc34)[C@@H]1CCC2=O [equilenen]
pKi [2]: 6.43

C[C@]12CC[C@@H]3c4ccc(O)cc4CC[C@H]3[C@@H]1CCC2=O [estrone, reference compound]
EC50 ([1]; estimated in similar test procedures): 0.2 mg/kg
